Here are results for four compounds from patent US20120232062A1, “AZAINDAZOLES TO TREAT FLAVIVIRIDAE VIRUS INFECTION” (EIGER BIOPHARMACEUTICALS, INC., priority 2009, published 2012).

Read-outs that look alike come from different tables or passages of the source.

One data set relates to Caco-2 cell line. The data set is described as follows: Caco-2 permeability testing. The data set is classed as in vitro ADME, human. The conditions noted are these: for Permeability (second figure of Efflux/permeability), Papp (A-B): Caco-2, A-B; for Permeability (second figure of Efflux/permeability), Papp (A-B) / Efflux (first figure of Efflux/permeability), Papp (B-A): 90 min; for Efflux (first figure of Efflux/permeability), Papp (B-A): Caco-2, B-A; for intestinal absorption predicted by in vitro PK profiles: in words. Also noted: Efflux (first figure of Efflux/permeability), Papp (B-A) / Permeability (second figure of Efflux/permeability), Papp (A-B): unit not given here. An outline of the steps: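 Caco-2 monolayers grown 21-27 days in MEM + 10% FBS + 1% NEAA; bidirectional transport (A-B, B-A) in HBSS with 25 mM HEPES, pH 7.4, 10 μM compound donor with 5 μM Lucifer Yellow as monolayer marker. Papp measured each direction, quantified against standard curve with internal standard; efflux ratio Papp(B-A)/Papp(A-B).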

Data set [1] is described as follows: In vivo rat pharmacokinetic studies. To be noted: for concentration in liver, fold above the EC50: rat liver after PO 20 or 40 mpk, for qd dosing. The text has this:
In vivo rat pharmacokinetic studies are designed to measure bioavailability, tissue distribution and metabolite identification in rats after intravenous (IV) and oral (PO) dosing. A full PK study typically includes two study arms (IV and PO) and takes serial blood samples from multiple animals per compound. The assay as described in this example was developed by BioDuro, a corporation of China with its principal office located at Building E, No. 29 Life Science Park Road, Changping District, Beijing, 102206, P.R. China.
Each compound was singly dosed both IV (1 mpk (mg/kg) to rats 1-3) and PO (20 or 40 mpk to rats 4-18), followed by blood draws and liver concentration studies (for PO dosed rats) from each animal at each time point.

Setting [2] is: 20 mg/kg, rat, PO 20 mpk, liver/plasma, read-out: L/P Ratio.
Where [3] appears, read: liver, 20 mg/kg, rat, PO 20 mpk, read-out: Liver.
The mark [4] stands for this setting: plasma, 20 mg/kg, rat, PO 20 mpk vs IV 1 mpk.
Setting [5] is: plasma, 20 mg/kg, rat, PO 20 mpk, read-out: Plasma.
[6] abbreviates: 40 mg/kg, rat, PO 40 mpk, liver/plasma, read-out: L/P Ratio.
Where [7] appears, read: liver, 40 mg/kg, rat, PO 40 mpk, read-out: Liver.
The mark [8] stands for this setting: plasma, 40 mg/kg, rat, PO 40 mpk, read-out: Plasma.

For orientation: bioavailability means the share of a dose that reaches the circulation, judged against a reference dose that is usually intravenous. Take `CCN1CCC(NC(=O)c2nn(C)c3nc(N4CCCCCC4)ccc23)CC1` [EBP1595]: in the data set on Caco-2 cell line, the “Permeability (second figure of Efflux/permeability), Papp (A-B)” value is on record as 15; the “Efflux (first figure of Efflux/permeability), Papp (B-A)” value is 14; the “intestinal absorption predicted by in vitro PK profiles” value (“intestinal absorption predicted” for short) is on record as “moderate intestinal absorption”. In addition, in data set [1] (setting [2]), the Kp at 0.25 h was found to be 652, the Kp at 1 h was determined as 172 and the Kp at 4 h amounted to 67. Further, in data set [1] (setting [3]), the concentration at 0.25 h was determined as 1900 ng/g, the concentration at 1 h was found to be 12400 ng/g, the concentration at 4 h was determined as 1400 ng/g and the concentration at 8 h stood at 132 ng/g. Also, in data set [1] (setting [3]), the concentration at 24 h stood at 0 ng/g. The compound further yielded a bioavailability in data set [1] (setting [4]) of 9%. In addition, in data set [1] (setting [5]), the concentration at 0.25 h came out at 1.6 ng/mL, the concentration at 1 h turned out to be 96.4 ng/mL, the concentration at 4 h stood at 14 ng/mL and the concentration at 8 h came out at 0 ng/mL. Besides, in data set [1] (setting [5]), the concentration at 24 h was 0 ng/mL. The “concentration in liver, fold above the EC50” value in data set [1] is given as 2-32 fold.

With `Cn1nc(C(=O)NC2CCN(CCN3CCCC3)CC2)c2ccc(N3CCCCCC3)nc21` [EBP1597], in the data set on Caco-2 cell line, the “Permeability (second figure of Efflux/permeability), Papp (A-B)” value came out at 9; the “Efflux (first figure of Efflux/permeability), Papp (B-A)” value is 7; the “intestinal absorption predicted” value was “moderate intestinal absorption”. Moreover, in data set [1] (setting [6]), the Kp at 0.25 h worked out at 1670, the Kp at 4 h came to 717 and the Kp at 8 h was 582. Further, in data set [1] (40 mg/kg, rat, PO 40 mpk, 12 h, liver/plasma, read-out: L/P Ratio), the Kp at 12 h came out at 527. In data set [1] (setting [7]), the concentration at 0.25 h came to 2620 ng/g, the concentration at 4 h worked out at 8120 ng/g and the concentration at 8 h stood at 1500 ng/g. The concentration at 12 h in data set [1] (liver, 40 mg/kg, rat, PO 40 mpk, 12 h, read-out: Liver) came out at 1030 ng/g. Moreover, the liver concentration range at 12 h in data set [1] (liver, 40 mg/kg, rat, PO 40 mpk, over the period given, read-out: Liver Conc (range)) was in the range of 2 to 18 µM. The bioavailability in data set [1] (plasma, 40 mg/kg, rat, PO 40 mpk vs IV 1 mpk) came out at 9%. For the same compound, in data set [1] (setting [8]), the concentration at 0.25 h was determined as 1.6 ng/mL, the concentration at 4 h amounted to 10.3 ng/mL and the concentration at 8 h was found to be 2.6 ng/mL. In data set [1] (plasma, 40 mg/kg, rat, PO 40 mpk, 12 h, read-out: Plasma), the concentration at 12 h was found to be 2.5 ng/mL. Also, the “concentration in liver, fold above the EC50” value in data set [1] is on record as 2-18 fold. For the same compound, in data set [1] (rat, PO 40 mpk, over the period given), the “Liver Conc (range)” value fell in the range of 2 to 18 µM.

For `Cn1nc(C(=O)NC2CCN(CCN3CCCCC3)CC2)c2ccc(N3CCCCCC3)nc21` [EBP1047], in the data set on Caco-2 cell line, the “Permeability (second figure of Efflux/permeability), Papp (A-B)” value is given as 11; the “Efflux (first figure of Efflux/permeability), Papp (B-A)” value is listed as 8; the “intestinal absorption predicted” value is “moderate intestinal absorption”. Besides, the “Efflux/Permeability ratio (desired <3)” value in the data set on Caco-2 cell line (Caco-2, Papp (B-A)/Papp (A-B)) was 0.8. In data set [1] (setting [2]), the Kp at 0.25 h worked out at 78.3, the Kp at 1 h came to 558, the Kp at 4 h was found to be 261 and the Kp at 8 h turned out to be 182. Besides, in data set [1] (setting [3]), the concentration at 0.25 h came to 382 ng/g, the concentration at 1 h stood at 14000 ng/g, the concentration at 4 h stood at 2670 ng/g and the concentration at 8 h stood at 563 ng/g. Further, in data set [1] (setting [3]), the concentration at 24 h is 5.35 ng/g. This compound had a bioavailability in data set [1] (setting [4]) of 9%. In data set [1] (setting [5]), the concentration at 0.25 h was determined as 5.1 ng/mL, the concentration at 1 h worked out at 24.1 ng/mL, the concentration at 4 h was found to be 10.4 ng/mL and the concentration at 8 h came to 2.9 ng/mL. For the same compound, in data set [1] (setting [5]), the concentration at 24 h turned out to be 0 ng/mL. The “concentration in liver, fold above the EC50” value in data set [1] is recorded as 2-60 fold. In addition, the “Liver Conc (range)” value in data set [1] (rat, PO 20 mpk, over the period given) was 1 to 30 µM.

On to `CC(C)N1CCC(NC(=O)c2nn(C)c3nc(N4CCCCCC4)ccc23)CC1` [EBP1604], for which the “intestinal absorption predicted” value in the data set with Caco-2 cell line was “moderate intestinal absorption”. In data set [1] (setting [2]), the Kp at 0.25 h worked out at 618 and the Kp at 1 h turned out to be 275. For the same compound, in data set [1] (setting [3]), the concentration at 0.25 h amounted to 915 ng/g, the concentration at 1 h came out at 4870 ng/g, the concentration at 4 h stood at 203 ng/g and the concentration at 8 h amounted to 43 ng/g. In addition, in data set [1] (setting [3]), the concentration at 24 h was found to be 0 ng/g. Moreover, the bioavailability in data set [1] (setting [4]) stood at 2%. In data set [1] (setting [5]), the concentration at 0.25 h turned out to be 0.8 ng/mL, the concentration at 1 h was found to be 17.9 ng/mL, the concentration at 4 h was found to be 0 ng/mL and the concentration at 8 h was 0 ng/mL. In addition, the concentration at 24 h in data set [1] (setting [5]) was 0 ng/mL. Further, the “concentration in liver, fold above the EC50” value in data set [1] is recorded as “up to 6 fold”. In data set [1] (rat, PO 20 mpk, over the period given, 20 mg/kg), the “Liver Conc (range)” value was in the range of 2 to 12 µM.
